ChEMBL document CHEMBL1131937 (Bioorg Med Chem Lett, 1999)
pKi: −log10 of the molar value.

Tests used:
[1] = Relative affinity for alpha-2-adrenoceptor and phenylethanolamine N-methyl-transferase (PNMT); design: reference not given here
[2] = molecular target: T1, Phenylethanolamine N-methyltransferase (Bos taurus, UniProt P10938); assay: Inhibitory activity against bovine adrenal phenylethanolamine N-methyl-transferase (PNMT)
T1 sequence (P10938 whole entry): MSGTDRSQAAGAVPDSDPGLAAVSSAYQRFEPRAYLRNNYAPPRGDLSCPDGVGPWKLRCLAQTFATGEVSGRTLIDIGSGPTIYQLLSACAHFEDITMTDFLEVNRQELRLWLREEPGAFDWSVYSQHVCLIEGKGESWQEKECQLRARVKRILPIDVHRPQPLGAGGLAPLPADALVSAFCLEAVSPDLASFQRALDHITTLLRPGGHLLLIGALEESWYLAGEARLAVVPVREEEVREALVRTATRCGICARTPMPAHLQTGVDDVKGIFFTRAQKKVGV

[3] = molecular target: T2, Adrenergic receptor alpha-2 (Rattus norvegicus, UniProt P22086+P19328+P22909); assay: Inhibition of [3H]clonidine binding to the rat alpha-2-adrenoceptor; format: protein assay; design: Log Ki: unit not given here
T2 sequence (P22086 whole entry): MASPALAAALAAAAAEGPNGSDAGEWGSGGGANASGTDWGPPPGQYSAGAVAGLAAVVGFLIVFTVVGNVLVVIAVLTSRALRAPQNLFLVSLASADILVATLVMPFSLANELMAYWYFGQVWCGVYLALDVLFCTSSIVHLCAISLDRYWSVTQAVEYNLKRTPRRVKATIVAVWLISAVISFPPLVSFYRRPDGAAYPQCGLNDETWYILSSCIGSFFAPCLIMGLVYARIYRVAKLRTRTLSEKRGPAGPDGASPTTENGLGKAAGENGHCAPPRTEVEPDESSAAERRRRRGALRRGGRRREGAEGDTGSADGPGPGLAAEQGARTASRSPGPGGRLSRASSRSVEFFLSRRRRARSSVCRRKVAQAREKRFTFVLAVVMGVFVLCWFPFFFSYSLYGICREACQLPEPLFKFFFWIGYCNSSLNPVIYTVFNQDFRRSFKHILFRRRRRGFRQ
T2 sequence (P19328 whole entry): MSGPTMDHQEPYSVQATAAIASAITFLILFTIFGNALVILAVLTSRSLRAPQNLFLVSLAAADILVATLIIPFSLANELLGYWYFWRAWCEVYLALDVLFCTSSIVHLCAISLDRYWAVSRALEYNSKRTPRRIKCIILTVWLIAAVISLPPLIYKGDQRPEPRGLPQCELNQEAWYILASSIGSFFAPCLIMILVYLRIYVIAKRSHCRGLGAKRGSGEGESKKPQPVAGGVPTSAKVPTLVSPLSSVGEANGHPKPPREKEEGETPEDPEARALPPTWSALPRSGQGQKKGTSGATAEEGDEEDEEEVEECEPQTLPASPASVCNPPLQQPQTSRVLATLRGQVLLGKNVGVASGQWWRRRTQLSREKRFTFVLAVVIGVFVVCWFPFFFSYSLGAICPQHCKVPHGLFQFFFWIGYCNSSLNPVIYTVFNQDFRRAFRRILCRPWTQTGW
T2 sequence (P22909 whole entry): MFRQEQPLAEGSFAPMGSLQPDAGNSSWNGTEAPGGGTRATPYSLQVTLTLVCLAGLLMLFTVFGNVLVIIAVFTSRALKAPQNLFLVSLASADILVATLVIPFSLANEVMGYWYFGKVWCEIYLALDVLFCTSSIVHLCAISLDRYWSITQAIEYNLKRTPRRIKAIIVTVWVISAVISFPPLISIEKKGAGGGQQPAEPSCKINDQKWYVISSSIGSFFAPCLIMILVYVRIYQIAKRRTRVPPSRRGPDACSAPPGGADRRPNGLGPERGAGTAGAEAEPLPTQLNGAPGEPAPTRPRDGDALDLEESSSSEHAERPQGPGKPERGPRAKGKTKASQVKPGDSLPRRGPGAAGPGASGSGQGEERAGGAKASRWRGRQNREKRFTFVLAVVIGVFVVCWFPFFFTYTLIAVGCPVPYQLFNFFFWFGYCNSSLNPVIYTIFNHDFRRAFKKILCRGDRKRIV

| Compound | pKi [2] | Log Ki [3] | other results |
| --- | --- | --- | --- |
| O=[N+]([O-])c1ccc2c(c1)CN[C@H](C(F)(F)F)C2 |  |  | Selectivity [1]: 25 |
| COC(=O)Nc1ccc2c(c1)CNCC2 | 3.73 | 5.04 |  |
| O=[N+]([O-])c1ccc2c(c1)CN[C@@H](C(F)(F)F)C2 |  |  | Selectivity [1]: 240 |
| O=S(=O)(c1ccc2c(c1)CNCC2)C(Cl)(Cl)Cl | 5.90 | 4.47 |  |
| O=C(c1ccc2c(c1)CNCC2)C(F)(F)F |  | 4.49 |  |
| OCc1ccc2c(c1)CNCC2 |  | 5.64 |  |
| FC(F)(F)C1Cc2ccc(Br)cc2CN1 (stereo unspecified) |  |  | Selectivity [1]: > 1900; pKi [3]: < 3.00 |
| C[C@H]1Cc2ccc([N+](=O)[O-])cc2CN1 |  | 4.72 |  |
| Brc1ccc2c(c1)CNCC2 | 6.53 |  |  |
| CS(=O)(=O)c1ccc2c(c1)CNC(C(F)(F)F)C2 (stereo unspecified) |  |  | Selectivity [1]: 110; pKi [3]: 2.41 |
| OC[C@H]1Cc2ccc(Cl)c(Cl)c2CN1 |  |  | Selectivity [1]: 0.32 |
| COc1cccc2c1CCNC2 |  | 6.89 |  |
| Clc1ccc2c(c1Cl)CNCCC2 |  | 5.39 |  |
| OC[C@H]1Cc2ccccc2CN1 |  | 5.36 |  |
| FC(F)(F)[C@H]1Cc2ccccc2CN1 |  |  | Selectivity [1]: 0.05 |
| C[C@H]1Cc2sc3ccccc3c2CN1 |  |  | Selectivity [1]: 4100; pKi [3]: 2.85 |
| CC1Cc2sc3ccccc3c2CN1 (stereo unspecified) |  |  | Selectivity [1]: 1.3 |
| O=[N+]([O-])c1ccc2c(c1)CNCCCC2 | 5.34 | 4.08 |  |
| CSc1ccc2c(c1)CNCCC2 | 5.98 | 4.92 |  |
| O=[N+]([O-])c1ccc2c(c1)CNC(C(F)(F)F)C2 (stereo unspecified) |  |  | Selectivity [1]: 750; pKi [3]: 2.82 |
| c1ccc(Cc2ccc3c(c2)CNCC3)cc1 | 4.21 | 5.33 |  |
| N#Cc1ccc2c(c1)CNC(C(F)(F)F)C2 (stereo unspecified) |  |  | Selectivity [1]: 220; pKi [3]: 2.54 |

| Compound | pKi [2] | Log Ki [3] | other results |
| --- | --- | --- | --- |
| FC(F)(F)c1ccc2c(c1)CNCC2 | 6.74 | 5.89 |  |
| C[C@H](N)c1ccccc1 |  | 3.92 |  |
| FC(F)(F)[C@@H]1Cc2ccc(Br)cc2CN1 |  |  | Selectivity [1]: 2.6 |
| COc1cccc2c1CNCC2 |  | 6.52 |  |
| COc1ccc2c(c1)CNCC2 |  | 6.33 |  |
| c1ccc2c(c1)CCCCNC2 |  | 4.81 |  |
| c1ccc2c(c1)CCCNC2 |  | 4.97 |  |
| O=[N+]([O-])c1ccc2c(c1)CNCCC2 | 6.41 | 4.18 |  |
| Oc1cccc2c1CNCC2 | 3.22 | 6.14 |  |
| Brc1ccc2c(c1)CNCCC2 | 6.54 | 5.05 |  |
| C[C@@H](N)c1ccccc1 |  | 3.54 |  |
| C=CCS(=O)(=O)c1ccc2c(c1)CNCC2 |  | 4.02 |  |
| O=S(=O)(c1ccccc1)c1ccc2c(c1)CNCC2 |  | 4.67 |  |
| Nc1ccc2c(c1)CNCCC2 | 4.62 | 3.96 |  |
| C[C@@H]1Cc2ccc(Cl)c(Cl)c2CN1 | 6.45 | 6.66 |  |
| CN1CCc2ccccc2C1 | 4.30 | 6.62 |  |
| Oc1ccc2c3c(ccc2c1)CCNC3 |  | 7.1 |  |
| NCc1cccc2ccccc12 |  | 5.79 |  |
| OC[C@@H]1Cc2ccc(Cl)c(Cl)c2CN1 |  |  | Selectivity [1]: 2.1 |
| O=[N+]([O-])c1cc2c(c([N+](=O)[O-])c1)CCNC2 | 4.24 | 4.11 |  |
| CS(=O)(=O)c1ccc2c(c1)CNCCC2 | 5.11 | 3.82 |  |
| CS(=O)(=O)c1ccc2c(c1)CN[C@H](C(F)(F)F)C2 |  |  | Selectivity [1]: 22 |

| Compound | pKi [2] | Log Ki [3] | other results |
| --- | --- | --- | --- |
| O=C(c1ccccc1)c1ccc2c(c1)CNCC2 |  | 4.57 |  |
| NS(=O)(=O)c1ccc2c(c1)CNC(CO)C2 (stereo unspecified) |  |  | Selectivity [1]: 290 |
| C[C@@H]1CCc2ccc(Cl)c(Cl)c2CN1 | 6.38 | 5.56 |  |
| Ic1ccc2c(c1)CNCC2 |  | 6.66 |  |
| NS(=O)(=O)c1ccc2c(c1)CN[C@@H](C(F)(F)F)C2 |  |  | Selectivity [1]: 61 |
| c1ccc2c(c1)CCNC2 [1,2,3,4-TETRAHYDROISOQUINOLINE] |  | 6.45 |  |
| Oc1cccc2c1CCNC2 |  | 6.11 |  |
| C[C@H]1CCc2ccc(Cl)c(Cl)c2CN1 | 5.24 | 5.36 |  |
| OCC1Cc2ccc(Cl)c(Cl)c2CN1 (stereo unspecified) |  |  | Selectivity [1]: 0.39 |
| COc1ccc2c3c(ccc2c1)CCNC3 | 4.85 |  |  |
| CSc1ccc2c(c1)CNCC2 | 6.21 | 6.39 |  |
| COC(=O)c1ccc2c(c1)CNCC2 |  | 5.34 |  |
| C[C@H]1Cc2ccccc2CN1 |  | 6.31 |  |
| Oc1cc2c(cc1O)CNCC2 | 5.41 | 6.32 |  |
| c1ccc2c(c1)CNCCN2 |  | 5.58 |  |
| C[C@@H]1Cc2ccc([N+](=O)[O-])cc2CN1 |  | 4.28 |  |
| N#Cc1ccc2c(c1)CNCC2 |  | 5.14 |  |
| N#Cc1ccc2c(c1)CN[C@@H](C(F)(F)F)C2 |  |  | Selectivity [1]: 15 |
| C[C@H](N)c1ccc(Cl)c(Cl)c1 | 5.30 | 4.44 |  |
| Oc1ccc2c(c1)CNCC2 |  | 5.65 |  |
| NS(=O)(=O)c1ccc2c(c1)CN[C@H](C(F)(F)F)C2 |  |  | Selectivity [1]: 26; pKi [3]: 3.40 |
| Oc1ccc2c(c1)CCNC2 | 5.24 | 6 |  |

| Compound | pKi [2] | Log Ki [3] | other results |
| --- | --- | --- | --- |
| Nc1ccc2c(c1)CNCC2 |  | 5.51 |  |
| FC(F)(F)C1Cc2ccccc2CN1 (stereo unspecified) |  |  | Selectivity [1]: 26; pKi [3]: 3.40 |
| O=C(O)c1ccc2c(c1)CNCC2 |  | 3.33 |  |
| NS(=O)(=O)c1ccc2c(c1)CNCCC2 | 5.78 | 3.82 |  |
| FC(F)(F)[C@H]1Cc2ccc(Br)cc2CN1 |  |  | Selectivity [1]: 0.83 |
| CC(=O)c1ccc2c(c1)CNCC2 |  | 5.21 |  |
| O=[N+]([O-])c1cc2c(c([N+](=O)[O-])c1)CCCNC2 | 4.44 | 4.6 |  |
| COc1ccc(OC)c2c1CCNC2 | 3.00 | 6.25 |  |
| CNS(=O)(=O)c1ccc2c(c1)CNCC2 |  | 3.88 |  |
| CS(=O)(=O)c1ccc2c(c1)CN[C@@H](C(F)(F)F)C2 |  |  | Selectivity [1]: 190 |
| NCc1ccc2c(c1)CNCC2 |  | 4.92 |  |
| C[C@@H](N)c1ccc(Cl)c(Cl)c1 | 4.49 | 4.39 |  |
| Cc1ccc2c(c1)CNCC2 | 5.57 | 6.44 |  |
| NC(=O)c1ccc2c(c1)CNCC2 |  | 4.64 |  |
| C[C@H]1Cc2ccc(Cl)c(Cl)c2CN1 | 6.04 | 6.37 |  |
| N#Cc1ccc2c(c1)CN[C@H](C(F)(F)F)C2 |  |  | Selectivity [1]: 1.4 |
| OC[C@@H]1Cc2ccccc2CN1 |  | 4.77 |  |
| C[C@@H]1Cc2ccccc2CN1 |  | 5.24 |  |
| C[C@@H]1Cc2sc3ccccc3c2CN1 |  |  | Selectivity [1]: 0.08 |
| CN1CCCCc2ccccc2C1 | 2.94 | 5.39 |  |
| Clc1ccc2c(c1Cl)CNCC2 |  | 7.66 |  |
